In patent US20210386367A1, “DEVICES AND SYSTEMS FOR GASTROINTESTINAL MICROBIOME DETECTION AND MANIPULATION” (Progenity, Inc., priority 2018, published 2021):
Converted amounts (≈) assume the structure as drawn. “And” between values parts separate entries of the source, which are not always exact repeats. Identical values can stand only once. Like-named read-outs stand apart in the source and are kept apart here.

How the values were obtained:
S. pneumoniae ATCC 49619 = assay: Broth microdilution MIC (time-kill study); type: cell-based, Streptococcus pneumoniae
B. vulgatus = assay: Spontaneous mutation frequency and mutation prevention concentration (MPC); type: cell-based; conditions: B. vulgatus ATCC 8482
Description: (§1) As used herein, “spontaneous mutation frequency” refers to the rate at which mutations arise in a bacterium that can lead to resistance to develop to an antimicrobial agent. “Mutation prevention concentration” or “MPC” refers to the lowest concentration of antimicrobial agent above which the selective proliferation of resistant mutants is expected to occur only rarely.

S. pneumonia = assay: as above; type: cell-based; conditions: S. pneumoniae ATCC 49619
Description: as §1

S. agalactiae = assay: as above; type: cell-based; conditions: S. agalactiae ATCC 13813
Description: as §1

Escherichia coli = assay: as above; type: cell-based
Description: as §1

S. pyogenes = assay: as above; type: cell-based; conditions: S. pyogenes ATCC 49399
Description: as §1

[1] = tested on: Streptococcus agalactiae clinical isolates; assay: MIC distribution against clinical isolates; type: cell-based; conditions: listed as RFX
How it was run: (§2)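 MIC is the lowest agent concentration preventing growth, determined by broth or agar dilution with serial compound dilutions and incubation under appropriate conditions (e.g., overnight at 37° C.). MIC90 is the concentration inhibiting ≥90% of isolates in the test population.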

[2] = tested on: Bacteroides fragilis clinical isolates; assay: MIC distribution against clinical isolates; type: cell-based; conditions: 30 B. fragilis isolates
How it was run: as §2

E. coli ATCC 25922 = assay: Broth microdilution MIC (time-kill study); type: cell-based, Escherichia coli
B. ovatus MMX 3503 = assay: Broth microdilution MIC (time-kill study); type: cell-based, Bacteroides ovatus
[3] = tested on: Veillonella spp. clinical isolates; assay: MIC distribution against clinical isolates; type: cell-based; conditions: 30 Veillonella spp. isolates
E. coli MMX 1312 = assay: Broth microdilution MIC (time-kill study); type: cell-based, Escherichia coli
Bacteroides fragilis = assay: Agar dilution MIC, 30 clinical isolates; type: cell-based
Bacteroides non fragilis = assay: Agar dilution MIC, 29 clinical isolates; type: cell-based, Bacteroides spp.
[4] = tested on: Bacteroides spp. (B. fragilis ATCC 25285, B. vulgatus, B. ovatus MMX 3503); assay: Agar dilution MIC (spontaneous mutation study; strain in conditions); type: cell-based
S. agalactiae ATCC 13813 = assay: Time-kill assay; type: cell-based, Streptococcus agalactiae; conditions: 2×, 4×, 8× MIC; 2, 6, 24 hr
[5] = rifaximin selection 4X MIC, 0.5 μg/mL
[6] = rifaximin selection 8X MIC, 1 μg/mL
[7] = rifaximin selection 4X MIC, 1 μg/mL
[8] = rifaximin selection 8X MIC, 2 μg/mL
[9] = E. coli ATCC 25922, rifaximin selection 4X MIC, 32 μg/mL
[10] = E. coli ATCC 25922, rifaximin selection 8X MIC, 64 μg/mL
[11] = E. coli ATCC 35218, rifaximin selection 4X MIC, 32 μg/mL, estimated by counting a quarter of the plate
[12] = E. coli ATCC 35218, rifaximin selection 8X MIC, 64 μg/mL, estimated by counting a quarter of the plate
[13] = E. coli MMX 1312, rifaximin selection 4X MIC, 16 μg/mL
[14] = E. coli MMX 1312, rifaximin selection 8X MIC, 32 μg/mL
[15] = 30 Bacteroides fragilis clinical isolates
[16] = 29 Bacteroides non-fragilis clinical isolates

## CO[C@H]1/C=C/O[C@@]2(C)Oc3c(C)c(O)c4c(O)c(c5c(nc6cc(C)ccn65)c4c3C2=O)NC(=O)/C(C)=C\C=C\[C@H](C)[C@H](O)[C@@H](C)[C@@H](O)[C@@H](C)[C@H](OC(C)=O)[C@@H]1C [rifaximin]
S. pneumoniae ATCC 49619; S. pneumoniae ATCC 49619
  MIC: 0.06 mg/L (≈ 0.0763 µM)
S. pneumoniae ATCC 49619; broth microdilution
  MIC: 0.06 mg/L (≈ 0.0763 µM)
B. vulgatus
  MFC: >1 mg/L
B. vulgatus; [5]
  Average Count: 5 CFU
  Count 1: 6 CFU
  Count 2: 4 CFU
  Spontaneous Mutation Frequency: 8.70 × 10^−10
B. vulgatus; [6]
  Average Count: 4 CFU
  Count 1: 2 CFU
  Count 2: 5 CFU
  Spontaneous Mutation Frequency: 6.96 × 10^−10
S. pneumonia
  MFC: >0.25 mg/L
S. agalactiae
  MFC: >2 mg/L
S. agalactiae; [7]
  Average Count: 159 CFU
  Count 1: 180 CFU
  Count 2: 137 CFU
  Spontaneous Mutation Frequency: 2.77 × 10^−8
S. agalactiae; [8]
  Average Count: 115 CFU
  Count 1: 110 CFU
  Count 2: 120 CFU
  Spontaneous Mutation Frequency: 2.00 × 10^−8
Escherichia coli; E. coli ATCC 25922
  MFC: >64 mg/L
Escherichia coli; [9]
  Average Count: TNTC
  Count 1: TNTC
  Count 2: TNTC
Escherichia coli; E. coli ATCC 25922, rifaximin selection 4X MIC, 32 μg/mL, based on estimated count of >500 average CFU
  Spontaneous Mutation Frequency: >2.24 × 10^−8
Escherichia coli; [10]
  Average Count: TNTC
  Count 1: TNTC
  Count 2: TNTC
Escherichia coli; E. coli ATCC 25922, rifaximin selection 8X MIC, 64 μg/mL, based on estimated count of >500 average CFU
  Spontaneous Mutation Frequency: >2.24 × 10^−8
Escherichia coli; E. coli ATCC 35218
  MFC: >64 mg/L
Escherichia coli; E. coli ATCC 35218, rifaximin selection 4X MIC, 32 μg/mL
  Spontaneous Mutation Frequency: 2.37 × 10^−8
Escherichia coli; [11]
  Average Count: 688^2 CFU
  Count 2: 600^1 CFU
Escherichia coli; E. coli ATCC 35218, rifaximin selection 8X MIC, 64 μg/mL
  Spontaneous Mutation Frequency: 1.15 × 10^−8
Escherichia coli; [12]
  Average Count: 332^1 CFU
  Count 1: 360^1 CFU
  Count 2: 304^1 CFU
Escherichia coli; E. coli MMX 1312
  MFC: >32 mg/L
Escherichia coli; [13]
  Average Count: TNTC
  Count 1: TNTC
  Count 2: TNTC
Escherichia coli; E. coli MMX 1312, rifaximin selection 4X MIC, 16 μg/mL, based on estimated count of >500 average CFU
  Spontaneous Mutation Frequency: >2.06 × 10^−8
Escherichia coli; [14]
  Average Count: TNTC
  Count 1: TNTC
  Count 2: TNTC
Escherichia coli; E. coli MMX 1312, rifaximin selection 8X MIC, 32 μg/mL, based on estimated count of >500 average CFU
  Spontaneous Mutation Frequency: >2.06 × 10^−8
S. pyogenes
  MFC: >1 mg/L
S. pyogenes; [5]
  Average Count: 83 CFU
  Count 1: 78 CFU
  Count 2: 87 CFU
  Spontaneous Mutation Frequency: 1.51 × 10^−8
S. pyogenes; [6]
  Average Count: 84 CFU
  Count 1: 78 CFU
  Count 2: 89 CFU
  Spontaneous Mutation Frequency: 1.53 × 10^−8
[1]
  Cumulative percentage of isolates inhibited at MIC: 75.0% and 100.0%
[2]; MIC 1 μg/mL
  Number of test isolates at MIC: 1
[2]; MIC >32 μg/mL
  Cumulative percentage of isolates inhibited at MIC: 100.0%
  Number of test isolates at MIC: 1
E. coli ATCC 25922; E. coli ATCC 25922
  MIC: 8 mg/L (≈ 10.2 µM)
E. coli ATCC 25922; broth microdilution
  MIC: 8 mg/L (≈ 10.2 µM)
B. ovatus MMX 3503; B. ovatus MMX 3504 (so in the source)
  MIC: 2 mg/L (≈ 2.54 µM)
B. ovatus MMX 3503; broth microdilution
  MIC: 1 mg/L (≈ 1.27 µM)
[3]; MIC 1 μg/mL
  Cumulative percentage of isolates inhibited at MIC: 10.0%
  Number of test isolates at MIC: 1
[3]; MIC 8 μg/mL
  Cumulative percentage of isolates inhibited at MIC: 93.3%
  Number of test isolates at MIC: 7
E. coli MMX 1312; E. coli MMX 1312
  MIC: 8 mg/L (≈ 10.2 µM)
E. coli MMX 1312; broth microdilution
  MIC: 8 mg/L (≈ 10.2 µM)
Bacteroides fragilis
  MIC50: 0.25 mg/L (≈ 0.318 µM)
  MIC90: 0.25 mg/L (≈ 0.318 µM)
  relative activity among drugs tested: meropenem and rifaximin had similar activity
Bacteroides fragilis; [15]
  MIC50: 0.25 mg/L (≈ 0.318 µM)
  MIC90: 0.25 mg/L (≈ 0.318 µM)
Bacteroides fragilis; modal MIC, 30 Bacteroides fragilis clinical isolates
  Mode: 0.25 µg/mL
Bacteroides non fragilis
  MIC50: 0.12 mg/L (≈ 0.153 µM)
  MIC90: 0.5 mg/L (≈ 0.636 µM)
  relative activity among drugs tested: most active
Bacteroides non fragilis; [16]
  MIC50: 0.12 mg/L (≈ 0.153 µM)
  MIC90: 0.5 mg/L (≈ 0.636 µM)
  MIC range: 0.03 to 0.5 mg/L
Bacteroides non fragilis; modal MIC, 29 Bacteroides non-fragilis clinical isolates
  Mode: 0.12 µg/mL
[4]; B. fragilis ATCC 25285
  Agar MIC: 0.25 mg/L
[4]; B. ovatus MMX 3503
  Agar MIC: 0.5 mg/L
[4]; B. vulgatus ATCC 8482
  Agar MIC: 0.12 mg/L
S. agalactiae ATCC 13813
  time-kill kinetics outcome (bactericidal = ≥3 log reduction in CFU per mL): bacteriostatic effect at 4× and 8× the MIC
